Measurements as given in US12291519B2, “2-hydroxycycloalkane-1-carbamoyl” (Idorsia Pharmaceuticals Ltd, priority 2019, dated 2025).

Tests used:
human Gal-3 (hGal-3) = human Gal-3 (hGal-3) (Homo sapiens (Human), UniProt P17931); assay: Competitive binding assay: biotinylated hGal-3 binding to microplate-adsorbed asialofetuin (ASF); settings: Activity on hGal-3; binding of biotinylated hGal-3 to ASF-coated plates; mean values
Protocol: (§1) Evaluation of Compound Inhibitory Activity (IC50)
The inhibitory activity of compounds is determined in competitive binding assays. […] Alternatively, and preferably, a human Gal-1 version in which all six cysteines are substituted by serines may be used.
Briefly, compounds are serially diluted in DMSO (working dilutions).
(§2) Plates are incubated for 3 hours at 4° C. then washed with cold assay buffer (3×50 uL), incubated for 1 hour with 25 μL/well of a streptavidin-peroxidases solution (diluted in assay buffer to 80 ng/mL) at 4° C., followed by further washing steps with assay buffer (3×50 uL). Finally, 25 μL/well of ABTS substrate is added.
(§3) The calculated IC50 values may fluctuate depending on the daily assay performance. Fluctuations of this kind are known to those skilled in the art. IC50 values from several measurements are given as mean values.

human Gal-1 (hGal-1) = assay: Competitive binding assay: biotinylated hGal-1 binding to microplate-adsorbed asialofetuin (ASF); settings: Activity on hGal-1; binding of biotinylated hGal-1 to ASF-coated plates; mean values
human Gal-1 (hGal-1), sequence (P09382 2-135 limits assumed): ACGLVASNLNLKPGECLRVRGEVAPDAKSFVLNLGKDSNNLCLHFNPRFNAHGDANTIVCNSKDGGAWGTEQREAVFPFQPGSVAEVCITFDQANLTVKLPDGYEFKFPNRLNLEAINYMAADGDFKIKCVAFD
Protocol: as §1
The inhibitory activity of compounds is determined in competitive binding assays. This spectrophotometric assay measures the binding of biotinylated human Gal-3 (hGal-3) or human Gal-1 (hGAl-1), respectively, to a microplate-adsorbed glycoprotein, asialofetuin (ASF) (Proc Natl Acad Sci USA. 2013 Mar. 26; 110(13):5052-7.). Alternatively, and preferably, a human Gal-1 version in which all six cysteines are substituted by serines may be used.
Briefly, compounds are serially diluted in DMSO (working dilutions). ASF-coated 384 well pates are supplemented with 22.8 μL/well of biotinylated hGal-3 or hGal-1 in assay buffer (i.e. 300-1000 ng/mL biotinylated hGal-3 or hGal-1) to which 1.2 μL of compound working dilutions are added and mixed.
as §2, with “added. OD (410 nm) is recorded after 30 to 45 min and IC50 values are calculated.” for “added.”
as §3

human Gal-3 (hGal-3), sequence (P17931 whole entry): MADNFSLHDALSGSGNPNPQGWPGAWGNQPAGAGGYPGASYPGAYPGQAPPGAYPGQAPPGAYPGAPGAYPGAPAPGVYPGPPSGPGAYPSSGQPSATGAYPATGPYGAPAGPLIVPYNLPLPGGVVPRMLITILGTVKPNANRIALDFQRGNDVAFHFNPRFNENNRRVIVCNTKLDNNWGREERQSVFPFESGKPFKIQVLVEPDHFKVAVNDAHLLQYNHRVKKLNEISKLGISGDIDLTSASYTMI

| Structure (SMILES) | IC50 (human Gal-3 (hGal-3)) [nM] | IC50 (human Gal-1 (hGal-1)) [nM] |
| --- | --- | --- |
| O=C([C@@H]1O[C@H](CO)[C@H](O)[C@H](n2cc(-c3cc(F)c(F)c(F)c3)nn2)[C@H]1O)N(Cc1cncnc1C(F)(F)F)[C@H]1CCCC[C@@H]1O [Example 27, (2R,3R,4S,5R,6R)-3,5-dihydroxy-N-((1S,2S)-2-hydroxycyclohexyl)-6-(hydroxymethyl)-N-((4-(trifluoromethyl)pyrimidin-5-yl)methyl)-4-(4-(3,4,5-trifluorophenyl)-1H-1,2,3-triazol-1-yl)tetrahydro-2H-pyran-2-carboxamide] | 264 | 3200 |
| O=C([C@@H]1O[C@H](CO)[C@H](O)[C@H](n2cc(-c3cc(F)c(F)c(F)c3)nn2)[C@H]1O)N(Cc1ccc(Cl)cc1)[C@H]1CCCC[C@@H]1O [Example 5, (2R,3R,4S,5R,6R)-N-(4-chlorobenzyl)-3,5-dihydroxy-N-((1S,2S)-2-hydroxycyclohexyl)-6-(hydroxymethyl)-4-(4-(3,4,5-trifluorophenyl)-1H-1,2,3-triazol-1-yl)tetrahydro-2H-pyran-2-carboxamide] | 174 | 18200 |
| CC(=O)O[C@@H]1[C@@H](n2cc(-c3cc(F)c(F)c(F)c3)nn2)[C@@H](O)[C@@H](CO)O[C@H]1C(=O)N(Cc1ccnn1C)[C@H]1CCCC[C@@H]1O [Example 43, (2R,3R,4S,5R,6R)-5-hydroxy-2-(((1S,2S)-2-hydroxycyclohexyl)((1-methyl-1H-pyrazol-5-yl)methyl)carbamoyl)-6-(hydroxymethyl)-4-(4-(3,4,5-trifluorophenyl)-1H-1,2,3-triazol-1-yl)tetrahydro-2H-pyran-3-yl acetate] | 76 | 2670 |
| CO[C@@H]1[C@@H](n2cc(-c3cc(F)c(F)c(F)c3)nn2)[C@@H](O)[C@@H](CO)O[C@H]1C(=O)N(Cc1cccc(Cl)c1)[C@H]1CCCC[C@@H]1O [Example 53, (2R,3R,4S,5R,6R)-N-(3-chlorobenzyl)-5-hydroxy-N-((1S,2S)-2-hydroxycyclohexyl)-6-(hydroxymethyl)-3-methoxy-4-(4-(3,4,5-trifluorophenyl)-1H-1,2,3-triazol-1-yl)tetrahydro-2H-pyran-2-carboxamide] | 868 | 10800 |
| CCn1nccc1CN(C(=O)[C@@H]1O[C@H](CO)[C@H](O)[C@H](n2cc(-c3cc(F)c(F)c(F)c3)nn2)[C@H]1OC)[C@H]1CCCC[C@@H]1O [Example 44, (2R,3R,4S,5R,6R)-N-((1-ethyl-1H-pyrazol-5-yl)methyl)-5-hydroxy-N-((1S,2S)-2-hydroxycyclohexyl)-6-(hydroxymethyl)-3-methoxy-4-(4-(3,4,5-trifluorophenyl)-1H-1,2,3-triazol-1-yl)tetrahydro-2H-pyran-2-carboxamide] | 179 | 974 |
| [2H]C([2H])([2H])O[C@@H]1[C@@H](n2cc(-c3cc(F)c(F)c(F)c3)nn2)[C@@H](O)[C@@H](CO)O[C@H]1C(=O)N(c1cc(Cl)cc(Cl)c1)[C@H]1CCCC[C@@H]1O [Example 87, (2R,3R,4S,5R,6R)-N-(3,5-dichlorophenyl)-5-hydroxy-N-((1S,2S)-2-hydroxycyclohexyl)-6-(hydroxymethyl)-3-(methoxy-d3)-4-(4-(3,4,5-trifluorophenyl)-1H-1,2,3-triazol-1-yl)tetrahydro-2H-pyran-2-carboxamide] | 7 | 173 |
| CO[C@@H]1[C@@H](n2cc(-c3cc(F)c(F)c(F)c3)nn2)[C@@H](O)[C@@H](CO)O[C@H]1C(=O)N(Cc1ccnn1C)[C@H]1CCCC[C@@H]1O [Example 32] | 122 | 905 |
| CO[C@@H]1[C@@H](n2cc(-c3cc(F)c(F)c(F)c3)nn2)[C@@H](O)[C@@H](CO)O[C@H]1C(=O)N(Cc1sccc1C)[C@H]1CCCC[C@@H]1O [Example 34] | 69 | 863 |

The remaining lines, values ahead:

| IC50 (human Gal-3 (hGal-3)) [nM] | IC50 (human Gal-1 (hGal-1)) [nM] | Structure (SMILES) |
| --- | --- | --- |
| 73 | 18600 | CO[C@@H]1[C@@H](n2cc(-c3cc(F)c(F)c(F)c3)nn2)[C@@H](O)[C@@H](CO)O[C@H]1C(=O)N(c1ccccc1)[C@H]1CCCC[C@@H]1O [Example 100, (2R,3R,4S,5R,6R)-5-hydroxy-N-((1S,2S)-2-hydroxycyclohexyl)-6-(hydroxymethyl)-3-methoxy-N-phenyl-4-(4-(3,4,5-trifluorophenyl)-1H-1,2,3-triazol-1-yl)tetrahydro-2H-pyran-2-carboxamide] |
| 11 | 421 | Cc1ccc(-c2cn([C@H]3[C@@H](O)[C@@H](CO)O[C@@H](C(=O)N(c4cc(Cl)cc(C#N)c4)[C@H]4CCCC[C@@H]4O)[C@@H]3OCC(=O)O)nn2)c(F)c1F [Example 172, 2-(((2R,3R,4S,5R,6R)-2-((3-chloro-5-cyanophenyl)((1S,2S)-2-hydroxycyclohexyl)carbamoyl)-4-(4-(2,3-difluoro-4-methylphenyl)-1H-1,2,3-triazol-1-yl)-5-hydroxy-6-(hydroxymethyl)tetrahydro-2H-pyran-3-yl)oxy)acetic acid] |
| 24 | 1410 | CO[C@@H]1[C@@H](n2cc(-c3cc(F)cc(Cl)c3)nn2)[C@@H](O)[C@@H](CO)O[C@H]1C(=O)N(c1cccc(Cl)c1)[C@H]1CCCC[C@@H]1O [Example 143, (2R,3R,4S,5R,6R)-4-(4-(3-chloro-5-fluorophenyl)-1H-1,2,3-triazol-1-yl)-N-(3-chlorophenyl)-5-hydroxy-N-((1S,2S)-2-hydroxycyclohexyl)-6-(hydroxymethyl)-3-methoxytetrahydro-2H-pyran-2-carboxamide] |
| 13 | 140 | CO[C@@H]1[C@@H](n2cc(-c3cc(F)c(F)c(Cl)c3)nn2)[C@@H](O)[C@@H](CO)O[C@H]1C(=O)N(c1cc(Cl)cc(C#N)c1)[C@H]1CCCC[C@@H]1O [Example 132, (2R,3R,4S,5R,6R)-4-(4-(3-chloro-4,5-difluorophenyl)-1H-1,2,3-triazol-1-yl)-N-(3-chloro-5-cyanophenyl)-5-hydroxy-N-((1S,2S)-2-hydroxycyclohexyl)-6-(hydroxymethyl)-3-methoxytetrahydro-2H-pyran-2-carboxamide] |
| 32 | 134 | CO[C@@H]1[C@@H](n2cc(-c3ccc(F)c(F)c3)nn2)[C@@H](O)[C@@H](CO)O[C@H]1C(=O)N(c1cc(Cl)cc(Cl)c1)[C@H]1CCCC[C@@H]1O [Example 162, (2R,3R,4S,5R,6R)-N-(3,5-dichlorophenyl)-4-(4-(3,4-difluorophenyl)-1H-1,2,3-triazol-1-yl)-5-hydroxy-N-((1S,2S)-2-hydroxycyclohexyl)-6-(hydroxymethyl)-3-methoxytetrahydro-2H-pyran-2-carboxamide] |
| 43 | 935 | CO[C@@H]1[C@@H](n2cc(-c3cc(F)cc(Cl)c3)nn2)[C@@H](O)[C@@H](CO)O[C@H]1C(=O)N(c1cccc(Br)c1)[C@H]1CCCC[C@@H]1O [Example 138, (2R,3R,4S,5R,6R)-N-(3-bromophenyl)-4-(4-(3-chloro-5-fluorophenyl)-1H-1,2,3-triazol-1-yl)-5-hydroxy-N-((1S,2S)-2-hydroxycyclohexyl)-6-(hydroxymethyl)-3-methoxytetrahydro-2H-pyran-2-carboxamide] |
| 12 | 181 | O=C(CO[C@@H]1[C@@H](n2cc(-c3cc(F)c(F)c(F)c3)nn2)[C@@H](O)[C@@H](CO)O[C@H]1C(=O)N(c1cc(Cl)cc(Cl)c1)[C@H]1CCCC[C@@H]1O)N1CCC(O)CC1 [Example 127, (2R,3R,4S,5R,6R)—N-(3,5-dichlorophenyl)-5-hydroxy-N-((1S,2S)-2-hydroxycyclohexyl)-6-(hydroxymethyl)-3-(2-(4-hydroxypiperidin-1-yl)-2-oxoethoxy)-4-(4-(3,4,5-trifluorophenyl)-1H-1,2,3-triazol-1-yl)tetrahydro-2H-pyran-2-carboxamide] |
| 34 | 792 | CO[C@@H]1[C@@H](n2cc(-c3ccc(Br)c(F)c3)nn2)[C@@H](O)[C@@H](CO)O[C@H]1C(=O)N(c1cc(Cl)cc(C#N)c1)[C@H]1CCCC[C@@H]1O [Example 165, (2R,3R,4S,5R,6R)-4-(4-(4-bromo-3-fluorophenyl)-1H-1,2,3-triazol-1-yl)-N-(3-chloro-5-cyanophenyl)-5-hydroxy-N-((1S,2S)-2-hydroxycyclohexyl)-6-(hydroxymethyl)-3-methoxytetrahydro-2H-pyran-2-carboxamide] |
| 15 | 798 | CO[C@@H]1[C@@H](n2cc(-c3cc(F)c(C)c(F)c3)nn2)[C@@H](O)[C@@H](CO)O[C@H]1C(=O)N(c1cc(Cl)cc(Cl)c1)[C@H]1CCCC[C@@H]1O [Example 158, (2R,3R,4S,5R,6R)-N-(3,5-dichlorophenyl)-4-(4-(3,5-difluoro-4-methylphenyl)-1H-1,2,3-triazol-1-yl)-5-hydroxy-N-((1S,2S)-2-hydroxycyclohexyl)-6-(hydroxymethyl)-3-methoxytetrahydro-2H-pyran-2-carboxamide] |
